Reference: US9839642B2, “Beta-tetrazolyl-propionic acids as metallo-beta-lactamase inhibitors” (priority 2014, dated 2017)

Legend:
IMP-1 = IMP-1 (Serratia marcescens, UniProt P52699); assay: Enzyme activity: determination of IC50, fluorescence assay with CCF2-FA substrate; assay type: biochemical; conditions: enzyme 2 pM, CCF2-FA 1.25 μM, 2 hours at 25° C.; read-out: IMP1 IC50
Method in brief: (§1)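 Enzyme (1 pM NDM-1, 2 pM IMP-1, 30 pM VIM-1) incubated with inhibitor (20 to 0.00063 μM) and 1.25 μM CCF2-FA in 100 mM KH2PO4 pH 7, 0.005% Tween-20, 10 μM ZnSO4, 2 h at 25 °C. Fluorescence read at 460 nm (ex 405 nm); IC50 by 4-parameter fit.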

VIM-1 = VIM-1 (Pseudomonas aeruginosa, UniProt A0A0F7KYQ8); assay: as above; assay type: biochemical; conditions: enzyme 30 pM, CCF2-FA 1.25 μM, 2 hours at 25° C.; read-out: VIM1 IC50
Method in brief: as §1

NDM-1 = NDM-1 (Klebsiella pneumoniae, UniProt C7C422); assay: as above; assay type: biochemical; conditions: enzyme 1 pM, CCF2-FA 1.25 μM, 2 hours at 25° C.; read-out: NDM1 IC50
Method in brief: as §1

[1] = test system: Escherichia coli expressing NDM-1 (CLB30016); assay: Antibiotic potentiation activity: synergistic concentration (MITC95) with imipenem, growth by OD600; assay type: cell-based; conditions: 95% inhibition of bacterial growth, strain CLB30016
Method in brief: (§2)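 Strains grown overnight at 35° C, resuspended in saline, diluted 1:100 into 1.1×CAMHB; imipenem at 1 μg/ml or 4 μg/ml with test compound 200 μM to 0.195 μM. Incubated 22 hours to 24 hours at 35° C, OD600 read; MITC95 is lowest compound concentration inhibiting 95% of growth.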

[2] = test system: Serratia marcescens expressing IMP-1 (CL5741); assay: as above; assay type: cell-based; conditions: 95% inhibition of bacterial growth, strain CL5741
Method in brief: as §2

[3] = test system: Klebsiella pneumoniae expressing VIM-1 (IHMA599644); assay: as above; assay type: cell-based; conditions: 95% inhibition of bacterial growth, strain IHMA599644
Method in brief: as §2

Sequence of NDM-1 (C7C422 29-270, looked up, species assumed): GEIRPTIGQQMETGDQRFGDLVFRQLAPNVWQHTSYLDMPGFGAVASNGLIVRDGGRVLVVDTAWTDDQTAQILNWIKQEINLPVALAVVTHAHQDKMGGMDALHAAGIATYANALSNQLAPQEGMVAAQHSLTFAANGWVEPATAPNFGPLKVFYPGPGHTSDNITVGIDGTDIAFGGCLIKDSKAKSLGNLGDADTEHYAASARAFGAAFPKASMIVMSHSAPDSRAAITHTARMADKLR
Sequence of IMP-1 (P52699 19-246, looked up, species assumed): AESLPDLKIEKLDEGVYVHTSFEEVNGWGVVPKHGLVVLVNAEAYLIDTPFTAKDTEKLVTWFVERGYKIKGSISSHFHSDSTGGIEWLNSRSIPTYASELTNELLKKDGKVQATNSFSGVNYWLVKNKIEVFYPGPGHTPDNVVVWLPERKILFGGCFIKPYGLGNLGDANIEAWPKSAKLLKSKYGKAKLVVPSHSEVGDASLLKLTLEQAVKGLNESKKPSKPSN

Compound | IC50 (IMP-1) [nM] | IC50 (VIM-1) [nM] | IC50 (NDM-1) [nM] | NDM1 EC30016 MITC95 [1] [µM] | IMP1 SM5741 MITC95 [2] [µM] | VIM1 KP599644 MITC95 [3] [µM]
CCC[C@H](C(=O)O)[C@H](Cc1ccc(NC)cn1)c1nnn[nH]1 [Example 151] | 7900 | 120 | 300 | 0.39 | 100 | 12.5
CNc1ccc(C[C@H](c2nnn[nH]2)[C@@H](C(=O)O)C(C)C)cn1 [Example 152, (2S,3S)-2-isopropyl-4-(6-(methylamino)pyridin-3-yl)-3-(1H-tetrazol-5-yl)butanoic acid] | 5300 | 29 | 62 | 0.39 | 38 | 6.2
CCC[C@H](C(=O)O)[C@H](Cc1ccc(C(F)(F)F)cc1)c1nnn[nH]1 [Example 153, (S)-2-((S)-1-(1H-tetrazol-5-yl)-2-(4-(trifluoromethyl)phenyl)ethyl)pentanoic acid] | 510 | 2.1 | 58 | 9.4 | 25 | 25
CCC[C@H](C(=O)O)[C@H](Cc1ccccn1)c1nn[nH]n1 [Example 154, (S)-2-((S)-2-(pyridin-2-yl)-1-(1H-tetrazol-5-yl)ethyl)pentanoic acid] | 13000 | 140 | 430 | 0.78 | 100 | 25
CCC[C@H](C(=O)O)[C@H](Cc1cccc2sc(N)nc12)c1nn[nH]n1 [Example 155, (S)-2-((S)-2-(2-aminobenzo[d]thiazol-4-yl)-1-(2H-tetrazol-5-yl)ethyl)pentanoic acid] | 290 | 7.3 | 12 | 16 | 18.8 | 18.8
CCC[C@H](C(=O)O)[C@H](Cc1cnn2ncccc12)c1nnn[nH]1 [Example 156, (S)-2-((S)-2-(pyrazolo[1,5-b]pyridazin-3-yl)-1-(1H-tetrazol-5-yl)ethyl)pentanoic acid] | 5400 | 1.5 | 150 | 31 | >200 | 25
CCC[C@H](C(=O)O)[C@H](Cc1ccc(O)nc1)c1nnn[nH]1 [Example 157, (S)-2-((S)-2-(6-hydroxypyridin-3-yl)-1-(1H-tetrazol-5-yl)ethyl)pentanoic acid] | 12000 | 8.5 | 730 | 18.8 | >200 | 25
CCC[C@H](C(=O)O)[C@H](Cc1ccc(-c2ccc(C3(O)CNC3)cc2)nc1)c1nnn[nH]1 [Example 159, (2S)-2-[(1S)-2-{6-[4-(3-hydroxyazetidin-3-yl)phenyl]pyridin-3-yl}-1-(1H-tetrazol-5-yl)ethyl]pentanoic acid] | 3700 | 23 | 400 | 12.5 | 75 | 50
CCC[C@H](C(=O)O)[C@H](Cc1ccc(-c2cnc(NC(C)=O)nc2)nc1)c1nn[nH]n1 [Example 160, (2S)-2-[(1S)-2-{6-[2-(acetylamino)pyrimidin-5-yl]pyridin-3-yl}-1-(1H-tetrazol-5-yl)ethyl]pentanoic acid] | 1600 | 5.7 | 50 | 38 | 50 | 75
CCC[C@H](C(=O)O)[C@H](Cc1ccc(-c2cnc(N)nc2)nc1)c1nnn[nH]1 [Example 161, (2S)-2-[(1S)-2-[6-(2-aminopyrimidin-5-yl)pyridin-3-yl]-1-(1H-tetrazol-5-yl)ethyl]pentanoic acid] | 1100 | 3.3 | 30 | 18.8 | 18.8 | 50
